In patent publication US7803930B2, “Antisense modulation of apolipoprotein B-expression” (Isis Pharmaceuticals, Inc., priority 2002, dated 2010):

Legend:
apolipoprotein B mRNA [1] = assay: ob/ob mice (Example 50): apolipoprotein B mRNA levels in liver; type: in vivo, mouse; conditions: liver, high fat high cholesterol diet, 50 mg/kg i.p. twice a week, six weeks
Method: (§1) Ob/ob mice receiving a high fat, high cholesterol diet (60% kcal fat supplemented with 0.15% cholesterol) were treated with one of several oligonucleotides to evaluate their effect on apolipoprotein B-related phenotypic endpoints in ob/ob mice. After overnight fasting, mice from each group were dosed intraperitoneally twice a week with 50 mg/kg of ISIS 147483 (SEQ ID NO: 79), or 147764 (SEQ ID NO: 109), or the controls ISIS 116847 (SEQ ID NO: 857), or 141923 (SEQ ID NO: 858), or saline for six weeks. At study termination and forty eight hours after the final injections, animals were sacrificed and evaluated for target mRNA levels in liver, cholesterol and triglyceride levels, liver enzyme levels, serum glucose levels, and PTEN levels.

PTEN = assay: ob/ob mice (Example 50): PTEN levels; type: in vivo, mouse; conditions: high fat high cholesterol diet, 50 mg/kg i.p. twice a week, six weeks
Method: as §1

[2] = ob/ob mice (Example 50): cholesterol, lipid, triglyceride, liver enzyme and glucose levels; type: in vivo, mouse; conditions: high fat high cholesterol diet, 50 mg/kg i.p. twice a week, six weeks
Method: as §1

[3] = tested on: mouse apolipoprotein B mRNA; assay: Inhibition of mouse apolipoprotein B mRNA levels in primary mouse hepatocytes, real-time PCR; type: cell-based
Method: Primary mouse hepatocytes were prepared from CD-1 mice purchased from Charles River Labs (Wilmington, Mass.) and were routinely cultured in Hepatoyte Attachment Media (Gibco) supplemented with 10% Fetal Bovine Serum (Gibco/Life Technologies, Gaithersburg, Md.), 250 nM dexamethasone (Sigma), and 10 nM bovine insulin (Sigma). Cells were seeded into 96-well plates (Falcon-Primaria #3872) at a density of 10000 cells/well for use in RT-PCR analysis.
When cells reached 80% confluency, they were treated with oligonucleotide. For cells grown in 96-well plates, wells were washed once with 200 μL OPTI-MEM™-1 reduced-serum medium (Gibco BRL) and then treated with 130 μL of OPTI-MEM™-1 containing 3.75 μg/mL LIPOFECTIN™ (Gibco BRL) and the desired concentration of oligonucleotide. After 4-7 hours of treatment, the medium was replaced with fresh medium. Cells were harvested 16-24 hours after oligonucleotide treatment.
Quantitation of apolipoprotein B mRNA levels was determined by real-time quantitative PCR using the ABI PRISM™ 7700 Sequence Detection System (PE-Applied Biosystems, Foster City, Calif.) according to manufacturer's instructions. This is a closed-tube, non-gel-based, fluorescence detection system which allows high-throughput quantitation of polymerase chain reaction (PCR) products in real-time. As opposed to standard PCR, in which amplification products are quantitated after the PCR is completed, products in real-time quantitative PCR are quantitated as they accumulate. This is accomplished by including in the PCR reaction an oligonucleotide probe that anneals specifically between the forward and reverse PCR primers, and contains two fluorescent dyes. A reporter dye (e.g., JOE, FAM, or VIC, obtained from either Operon Technologies Inc., Alameda, Calif. or PE-Applied Biosystems, Foster City, Calif.) is attached to the 5′ end of the probe and a quencher dye (e.g., TAMRA, obtained from either Operon Technologies Inc., Alameda, Calif. or PE-Applied Biosystems, Foster City, Calif.) is attached to the 3′ end of the probe. When the probe and dyes are intact, reporter dye emission is quenched by the proximity of the 3′ quencher dye. During amplification, annealing of the probe to the target sequence creates a substrate that can be cleaved by the 5′-exonuclease activity of Taq polymerase. […] With each cycle, additional reporter dye molecules are cleaved from their respective probes, and the fluorescence intensity is monitored at regular intervals by laser optics built into the ABI PRISM™ 7700 Sequence Detection System. In each assay, a series of parallel reactions containing serial dilutions of mRNA from untreated control samples generates a standard curve that is used to quantitate the percent inhibition after antisense oligonucleotide treatment of test samples.
Probes and primers to mouse apolipoprotein B were designed to hybridize to a mouse apolipoprotein B sequence, using published sequence information (GenBank accession number M35186, incorporated herein as SEQ ID NO: 10). For mouse apolipoprotein B the PCR primers were: forward primer: CGTGGGCTCCAGCATTCTA (SEQ ID NO: 11) reverse primer: […] (SEQ ID NO: 12) and the PCR probe was: FAM-[…]-TAMRA SEQ ID NO: 13) where FAM (PE-Applied Biosystems, Foster City, Calif.) is the fluorescent reporter dye) and TAMRA (PE-Applied Biosystems, Foster City, Calif.) is the quencher dye. For mouse GAPDH the PCR primers were: forward primer: […] (SEQ ID NO: 14) reverse primer: […] (SEQ ID NO:15) and the PCR probe was: 5′ JOE-[…]-TAMRA 3′ (SEQ ID NO: 16) where JOE (PE-Applied Biosystems, Foster City, Calif.) is the fluorescent reporter dye) and TAMRA (PE-Applied Biosystems, Foster City, Calif.) is the quencher dye.
In accordance with the present invention, a series of oligonucleotides was designed to target different regions of the mouse apolipoprotein B RNA, using published sequence (GenBank accession number M35186, incorporated herein as SEQ ID NO: 10). […]

[4] = High fat fed C57BL/6 mice, 6 week timecourse: serum AST and ALT levels; type: in vivo, mouse; conditions: daily oral dose of 20 mg/kg
Method: Male C57BL/6 mice (n=8) receiving a high fat diet (60% kcal fat) were evaluated over the course of 6 weeks for the effects of ISIS 147764 on liver enzyme (AST and ALT) levels. Increased levels of the liver enzymes ALT and AST indicate toxicity and liver damage. Control animals received saline treatment (50 mg/kg). […] AST and ALT levels were measured at 6 weeks.

[5] = type: in vivo, mouse
Source text: (§2) Female ApoE knockout mice ranged in age from 5 to 7 weeks and were placed on a normal diet for 2 weeks before study initiation. ApoE knockout mice were then fed ad libitum a 60% fat diet, with 0.15% added cholesterol to induce dyslipidemia and obesity. Control animals were maintained on a high-fat diet with no added cholesterol. […]
(§3) At study termination and forty eight hours after the final injections, animals were sacrificed and evaluated for target mRNA levels in liver by RT-PCR methods verified by Northern Blot analysis, glucose levels, cholesterol and lipid levels by HPLC separation methods and triglyceride and liver enzyme levels (performed by LabCorp Preclinical Services; San Diego, Calif.).
(§4) Data are normalized to saline controls.

[6] = High fat fed C57BL/6 mice, 6 week timecourse: serum cholesterol, triglyceride, lipoprotein and glucose levels; type: in vivo, mouse; conditions: for Percent Inhibition HDL / Percent Inhibition LDL / Percent Inhibition VLDL: 20 mg/kg daily oral, negative = increase
Method: Male C57BL/6 mice (n=8) receiving a high fat diet (60% kcal fat) were evaluated over the course of 6 weeks for the effects of treatment with the antisense oligonucleotide, ISIS 147764. Control animals received saline treatment (50 mg/kg). A subset of animals received a daily oral dose (20 mg/kg) atorvastatin calcium (Lipitor®, Pfizer Inc.). All mice, except atorvastatin-treated animals, were dosed intraperitoneally every three days (twice a week), after fasting overnight, with 5, 25, 50 mg/kg ISIS 147764 (SEQ ID No: 109) or saline (50 mg/kg) for six weeks. Serum cholesterol and lipoproteins were analyzed at 0, 2 and 6 week interim timepoints. At study termination, animals were sacrificed 48 hours after the final injections and evaluated for levels of target mRNA levels in liver, cholesterol, lipoprotein, triglyceride, liver enzyme (AST and ALT) and serum glucose levels as well as body, liver, spleen and fat pad weights.
(§5) Male C57BL/6 mice (n=8) receiving a high fat diet (60% kcal fat) were evaluated over the course of 6 weeks for the effects of ISIS 147764 on serum cholesterol and triglyceride levels. Control animals received saline treatment (50 mg/kg). Mice were dosed intraperitoneally every three days (twice a week), after fasting overnight, with 5, 25, 50 mg/kg ISIS 147764 (SEQ ID No: 109) or saline (50 mg/kg) for six weeks.
Values in the table are expressed as percent inhibition and are normalized to the saline control.
In addition to serum cholesterol, at study termination, animals were sacrificed 48 hours after the final injections and evaluated for triglyceride levels.
as §5, with “lipoprotein (VLDL, LDL” for “serum cholesterol”, “HDL)” for “triglyceride”
Values in the table are expressed as percent inhibition and are normalized to the saline control. Negative values indicate an observed increase in lipoprotein levels.
as §5, with “glucose” for “cholesterol and triglyceride”
At study termination, animals were sacrificed 48 hours after the final injections and evaluated for serum glucose levels. […] Mice treated with atorvastatin at a daily oral dose of 20 mg/kg had serum glucose levels of 215 mg/dL.

apolipoprotein B mRNA [7] = assay: ApoE knockout mice (Example 28): target mRNA levels in liver; type: in vivo, mouse; conditions: high fat diet, 20 mg/kg daily
Source text: as §2, §3, §4

[8] = High fat fed C57BL/6 mice, 6 week timecourse: body, spleen, liver and fat pad weight; type: in vivo, mouse; conditions: 20 mg/kg daily, six weeks, vs saline-treated controls
Method: Male C57BL/6 mice (n=8) receiving a high fat diet (60% kcal fat) were evaluated over the course of 6 weeks for the effects of ISIS 147764 on body, spleen, liver and fat pad weight. Control animals received saline treatment (50 mg/kg). […]
At study termination, animals were sacrificed 48 hours after the final injections and body, spleen, liver and fat pad weights were measured. Values are expressed as percent change in body weight or ogan weight compared to the saline-treated control animals. Negative values indicated a decrease in weight.

apolipoprotein B mRNA [9] = assay: LDLr(-/-) mice dose response (Example 44): apolipoprotein B mRNA; type: in vivo, mouse; conditions: 20 mg/kg, six weeks
Method: LDLr(−/−) mice, purchased from Taconic (Germantown, N.Y.) were used to evaluate antisense oligonucleotides for their potential to lower apolipoprotein B mRNA or protein levels, as well as phenotypic endpoints associated with apolipoprotein B. LDLr(−/−) mice were separated into groups of males and females. LDLr(−/−) mice were dosed intraperitoneally twice a week for six weeks with either 10, 25, or 50 mg/kg of ISIS 147764 (SEQ ID NO: 109) or ISIS 270906 (SEQ ID NO: 856) which is a 4 base mismatch of ISIS 147764, or with saline, or 20 mg/kg of Atorvastatin. At study termination animals were sacrificed and evaluated for several phenotypic markers.

[10] = ApoE knockout mice, high fat diet, 20 mg/kg daily

In the case of “116847 (antisense CTGCTAGCCTCTGGATTTGA; listed as DNA, chemistry not given here) [compound 116847]”, the “mRNA % control ApoB” value (apolipoprotein B mRNA [1]) is reported as 77.0 % control, the “mRNA % control PTEN” value (PTEN) is reported as 20.0 % control and the Glucose [2] is reported as 135.5 mg/dL. The “Lipoproteins CHOL” value [2] was 287.5 mg/dL, the “Lipoproteins TRIG” value [2] was 196.5 mg/dL and the “Liver Enzymes ALT” value [2] was 607.5 IU/L. For the same compound, the “Liver Enzymes AST” value [2] was 343.2 IU/L.

With “147483 (ATGTCAATGCCACATGTCCA; phosphorothioate, 2'-MOE wings, chemistry not fully specified) [compound 147483]” the “mRNA % control ApoB” value (apolipoprotein B mRNA [1]) was 25.2 % control, the “Percent Inhibition 50 nM” value ([3]; Table 4, 50 nM) was 56% and the “Percent Inhibition 150 nM” value ([3]; Table 4, 150 nM) was 88%. The “Percent Inhibition 300 nM” value ([3]; Table 4, 300 nM) was 89%, the “mRNA % control PTEN” value (PTEN) was 143.2 % control and the Glucose [2] was 213.2 mg/dL. The “Lipoproteins CHOL” value [2] was 250.0 mg/dL, the “Lipoproteins TRIG” value [2] was 99.8 mg/dL and the “Liver Enzymes ALT” value [2] was 941.7 IU/L. The “Liver Enzymes AST” value [2] was 790.2 IU/L.

In the case of CC(C)c1c(C(=O)Nc2ccccc2)c(-c2ccccc2)c(-c2ccc(F)cc2)n1CC[C@@H](O)C[C@@H](O)CC(=O)O [atorvastatin, atorvastatin calcium, reference compound], the AST levels [4] is reported as 85 IU/L, the “AST levels (printed in the ALT paragraph)” value [4] is reported as 40 IU/L and the “Cholesterol Levels” value [5, 10] is reported as 938 mg/dL. For the same compound, the “Glucose Levels” value [5, 10] was 162 mg/dL, the “Lipoprotein Levels HDL” value [5, 10] was 42 mg/dL and the “Lipoprotein Levels LDL” value [5, 10] was 250 mg/dL. The “Lipoprotein Levels VLDL” value [5, 10] was 653 mg/dL, the “Liver Enzyme Levels ALT” value ([5]; mouse, in vivo, 20 mg/kg) was 76 IU/L and the “Liver Enzyme Levels AST” value ([5]; mouse, in vivo, 20 mg/kg) was 75 IU/L. For the same compound, the “Percent Inhibition HDL” value ([6]; 0 weeks) was 0%, the “Percent Inhibition LDL” value ([6]; 0 weeks) was 0% and the “Percent Inhibition VLDL” value ([6]; 0 weeks) was 0%. For the same compound, the “Percent Inhibition HDL” value ([6]; 2 weeks) was 15%, the “Percent Inhibition LDL” value ([6]; 2 weeks) was 10% and the “Percent Inhibition VLDL” value ([6]; 2 weeks) was 15%. For the same compound, the “Percent Inhibition HDL” value ([6]; 6 weeks) was 20%, the “Percent Inhibition LDL” value ([6]; 6 weeks) was −10% and the “Percent Inhibition VLDL” value ([6]; 6 weeks) was −5%. For the same compound, the serum glucose levels ([6]; daily oral dose of 20 mg/kg) was 215 mg/dL, the “decrease in serum cholesterol” value ([6]; oral dose of 20 mg/kg, study termination) was 20% and the “mRNA Percent Inhibition” value (apolipoprotein B mRNA [7]) was 10%. For the same compound, the “Percent Change Fat (fat pad weight)” value [8] was 7%, the “Percent Change Liver weight” value [8] was 15% and the “Percent Change Spleen weight” value [8] was 10%. For the same compound, the “Percent Change Total Body Wt.” value [8] was 1%, the “apolipoprotein B mRNA % control” value (apolipoprotein B mRNA [9]; female LDLr(-/-) mice) was 109.0 % control and the “apolipoprotein B mRNA % control” value (apolipoprotein B mRNA [9]; male LDLr(-/-) mice) was 110.9 % control.
